# Experimental data published in ChEMBL document CHEMBL2169819, “Synthesis and biological evaluation of 2-amino-3-(4-chlorobenzoyl)-4-[(4-arylpiperazin-1-yl)methyl]-5-substituted-thiophenes. effect of the 5-modification on allosteric enhancer activity at the A1 adenosine receptor” (J Med Chem, 2012).
# Biological target: T1, Adenosine receptor A1 (Homo sapiens) (UniProt P30542)
# T1 sequence (whole entry): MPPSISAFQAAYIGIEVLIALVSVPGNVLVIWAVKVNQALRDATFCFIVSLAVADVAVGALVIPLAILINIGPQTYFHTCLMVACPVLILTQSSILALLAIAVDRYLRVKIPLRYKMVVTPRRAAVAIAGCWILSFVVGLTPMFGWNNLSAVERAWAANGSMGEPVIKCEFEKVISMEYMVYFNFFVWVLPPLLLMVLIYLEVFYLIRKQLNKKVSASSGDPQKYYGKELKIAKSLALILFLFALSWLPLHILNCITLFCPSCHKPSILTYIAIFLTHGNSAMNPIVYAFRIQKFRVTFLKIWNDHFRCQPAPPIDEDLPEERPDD
# Test: Allosteric enhancing activity at human adenosine A1 receptor expressed in CHO cells assessed as increase in CCPA-induced [3H]DPCPX displacement at 10 uM after 90 mins relative to control
# Assay type: cell-based
row,SMILES,Ratio Ki
1,Nc1sc(-c2ccc(Cl)cc2)c(CN2CCN(c3ccccc3)CC2)c1C(=O)c1ccc(Cl)cc1,9.5
2,Cc1sc(N)c(C(=O)c2ccc(Cl)cc2)c1CN1CCN(c2ccc(Cl)c(Cl)c2)CC1,5.4
3,Cc1sc(N)c(C(=O)c2ccc(Cl)cc2)c1CN1CCN(c2ccc(C#N)cc2)CC1,1.2
4,Nc1sc(-c2ccc(F)cc2)c(CN2CCN(c3ccccc3)CC2)c1C(=O)c1ccc(Cl)cc1,13.3
5,CCc1sc(N)c(C(=O)c2ccc(Cl)cc2)c1CN1CCN(c2ccccc2)CC1,4.9
6,Cc1sc(N)c(C(=O)c2ccc(Cl)cc2)c1CN1CCN(c2ccccc2)CC1,6.4
7,Nc1sc(-c2ccccc2)c(CN2CCN(c3ccc(Cl)cc3)CC2)c1C(=O)c1ccc(Cl)cc1,7.9
8,Nc1sc(-c2ccc(Cl)cc2)c(CN2CCN(Cc3ccccc3)CC2)c1C(=O)c1ccc(Cl)cc1,6.8

# Biological target: T1, Adenosine receptor A1 (Homo sapiens)
# Test: Allosteric enhancing activity at human adenosine A1 receptor expressed in CHO cells assessed as increase in [3H]-2-chloro-N6-cyclopentyladenosine Bmax at 10 uM after 90 mins relative to control
# Assay type: cell-based
row,SMILES,fold change (FC)
1,Nc1sc(-c2ccc(Cl)cc2)c(CN2CCN(c3ccccc3)CC2)c1C(=O)c1ccc(Cl)cc1,10.2
2,Cc1sc(N)c(C(=O)c2ccc(Cl)cc2)c1CN1CCN(c2ccc(Cl)c(Cl)c2)CC1,5.9
3,Cc1sc(N)c(C(=O)c2ccc(Cl)cc2)c1CN1CCN(c2ccc(C#N)cc2)CC1,1.4
4,Nc1sc(-c2ccc(F)cc2)c(CN2CCN(c3ccccc3)CC2)c1C(=O)c1ccc(Cl)cc1,14.1
5,CCc1sc(N)c(C(=O)c2ccc(Cl)cc2)c1CN1CCN(c2ccccc2)CC1,5.5
6,Cc1sc(N)c(C(=O)c2ccc(Cl)cc2)c1CN1CCN(c2ccccc2)CC1,6.8
7,Nc1sc(-c2ccccc2)c(CN2CCN(c3ccc(Cl)cc3)CC2)c1C(=O)c1ccc(Cl)cc1,9.7
8,Nc1sc(-c2ccc(Cl)cc2)c(CN2CCN(Cc3ccccc3)CC2)c1C(=O)c1ccc(Cl)cc1,7.7

# Biological target: T2, Adenosine receptor A3 (Homo sapiens) (UniProt P0DMS8)
# T2 sequence (whole entry): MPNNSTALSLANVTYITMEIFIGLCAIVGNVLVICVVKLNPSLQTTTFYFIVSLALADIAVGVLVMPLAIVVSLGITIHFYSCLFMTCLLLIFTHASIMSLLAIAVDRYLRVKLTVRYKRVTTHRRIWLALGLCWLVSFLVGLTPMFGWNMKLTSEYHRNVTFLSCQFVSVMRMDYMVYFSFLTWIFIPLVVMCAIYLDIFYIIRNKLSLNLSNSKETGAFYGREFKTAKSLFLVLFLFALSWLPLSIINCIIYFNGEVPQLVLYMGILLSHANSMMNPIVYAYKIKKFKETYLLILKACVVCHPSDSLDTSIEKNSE
# Test: Displacement of [3H]MRE-3008-F20 from human adenosine A3 receptor expressed in CHO cells at 10 uM after 120 mins by scintillation counting
# Assay type: cell-based
row,SMILES,inhibition
1,Nc1sc(-c2ccc(Cl)cc2)c(CN2CCN(c3ccccc3)CC2)c1C(=O)c1ccc(Cl)cc1,< 12%
2,Cc1sc(N)c(C(=O)c2ccc(Cl)cc2)c1CN1CCN(c2ccc(Cl)c(Cl)c2)CC1,< 12%
3,Cc1sc(N)c(C(=O)c2ccc(Cl)cc2)c1CN1CCN(c2ccc(C#N)cc2)CC1,< 12%
4,Nc1sc(-c2ccc(F)cc2)c(CN2CCN(c3ccccc3)CC2)c1C(=O)c1ccc(Cl)cc1,< 12%
5,CCc1sc(N)c(C(=O)c2ccc(Cl)cc2)c1CN1CCN(c2ccccc2)CC1,< 12%
6,Cc1sc(N)c(C(=O)c2ccc(Cl)cc2)c1CN1CCN(c2ccccc2)CC1,< 12%
7,Nc1sc(-c2ccccc2)c(CN2CCN(c3ccc(Cl)cc3)CC2)c1C(=O)c1ccc(Cl)cc1,< 12%
8,Nc1sc(-c2ccc(Cl)cc2)c(CN2CCN(Cc3ccccc3)CC2)c1C(=O)c1ccc(Cl)cc1,< 12%

# Biological target: Adenosine receptor A2a (Homo sapiens) (UniProt P29274)
# Sequence (P29274 whole entry): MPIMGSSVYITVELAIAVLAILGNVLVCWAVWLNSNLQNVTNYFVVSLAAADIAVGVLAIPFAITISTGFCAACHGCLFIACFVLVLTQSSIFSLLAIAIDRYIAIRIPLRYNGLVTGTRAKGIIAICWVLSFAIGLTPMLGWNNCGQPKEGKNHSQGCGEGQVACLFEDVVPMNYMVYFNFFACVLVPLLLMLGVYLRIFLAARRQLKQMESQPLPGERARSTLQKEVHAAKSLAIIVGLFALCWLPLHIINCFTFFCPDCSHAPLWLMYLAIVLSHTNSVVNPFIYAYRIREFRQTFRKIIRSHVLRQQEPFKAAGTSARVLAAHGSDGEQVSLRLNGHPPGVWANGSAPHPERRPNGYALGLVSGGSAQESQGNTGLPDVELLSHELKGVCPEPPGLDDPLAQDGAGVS
# Test: Displacement of [3H]ZM241385 from human adenosine A2A receptor expressed in CHO cells at 10 uM after 120 mins by scintillation counting
# Assay type: cell-based
row,SMILES,inhibition
1,Nc1sc(-c2ccc(Cl)cc2)c(CN2CCN(c3ccccc3)CC2)c1C(=O)c1ccc(Cl)cc1,< 12%
2,Cc1sc(N)c(C(=O)c2ccc(Cl)cc2)c1CN1CCN(c2ccc(Cl)c(Cl)c2)CC1,< 12%
3,Cc1sc(N)c(C(=O)c2ccc(Cl)cc2)c1CN1CCN(c2ccc(C#N)cc2)CC1,< 12%
4,Nc1sc(-c2ccc(F)cc2)c(CN2CCN(c3ccccc3)CC2)c1C(=O)c1ccc(Cl)cc1,< 12%
5,CCc1sc(N)c(C(=O)c2ccc(Cl)cc2)c1CN1CCN(c2ccccc2)CC1,< 12%
6,Cc1sc(N)c(C(=O)c2ccc(Cl)cc2)c1CN1CCN(c2ccccc2)CC1,< 12%
7,Nc1sc(-c2ccccc2)c(CN2CCN(c3ccc(Cl)cc3)CC2)c1C(=O)c1ccc(Cl)cc1,< 12%
8,Nc1sc(-c2ccc(Cl)cc2)c(CN2CCN(Cc3ccccc3)CC2)c1C(=O)c1ccc(Cl)cc1,< 12%

# Biological target: T1, Adenosine receptor A1 (Homo sapiens)
# Test: Displacement of [3H]DPCPX from human adenosine A1 receptor expressed in CHO cells at 10 uM after 120 mins by scintillation counting
# Assay type: cell-based
row,SMILES,inhibition
1,Nc1sc(-c2ccc(Cl)cc2)c(CN2CCN(c3ccccc3)CC2)c1C(=O)c1ccc(Cl)cc1,< 12%
2,Cc1sc(N)c(C(=O)c2ccc(Cl)cc2)c1CN1CCN(c2ccc(Cl)c(Cl)c2)CC1,< 12%
3,Cc1sc(N)c(C(=O)c2ccc(Cl)cc2)c1CN1CCN(c2ccc(C#N)cc2)CC1,< 12%
4,Nc1sc(-c2ccc(F)cc2)c(CN2CCN(c3ccccc3)CC2)c1C(=O)c1ccc(Cl)cc1,< 12%
5,CCc1sc(N)c(C(=O)c2ccc(Cl)cc2)c1CN1CCN(c2ccccc2)CC1,< 12%
6,Cc1sc(N)c(C(=O)c2ccc(Cl)cc2)c1CN1CCN(c2ccccc2)CC1,< 12%
7,Nc1sc(-c2ccccc2)c(CN2CCN(c3ccc(Cl)cc3)CC2)c1C(=O)c1ccc(Cl)cc1,< 12%
8,Nc1sc(-c2ccc(Cl)cc2)c(CN2CCN(Cc3ccccc3)CC2)c1C(=O)c1ccc(Cl)cc1,< 12%

# Biological target: T1, Adenosine receptor A1 (Homo sapiens)
# Test: Allosteric enhancing activity at human adenosine A1 receptor expressed in CHO cells assessed as inhibition of forskolin-stimulated cAMP accumulation at 100 nM incubated for 10 mins prior to forskolin-stimulation measured after 5 mins by competition protein binding assay in presence of 2-chloro-N6-cyclopentyladenosine
# Assay type: functional, cell-based
row,SMILES,inhibition
1,Nc1sc(-c2ccc(Cl)cc2)c(CN2CCN(c3ccccc3)CC2)c1C(=O)c1ccc(Cl)cc1,72%
2,Cc1sc(N)c(C(=O)c2ccc(Cl)cc2)c1CN1CCN(c2ccc(Cl)c(Cl)c2)CC1,51%
3,Cc1sc(N)c(C(=O)c2ccc(Cl)cc2)c1CN1CCN(c2ccc(C#N)cc2)CC1,15%
4,Nc1sc(-c2ccc(F)cc2)c(CN2CCN(c3ccccc3)CC2)c1C(=O)c1ccc(Cl)cc1,81%
5,CCc1sc(N)c(C(=O)c2ccc(Cl)cc2)c1CN1CCN(c2ccccc2)CC1,50%
6,Cc1sc(N)c(C(=O)c2ccc(Cl)cc2)c1CN1CCN(c2ccccc2)CC1,57%
7,Nc1sc(-c2ccccc2)c(CN2CCN(c3ccc(Cl)cc3)CC2)c1C(=O)c1ccc(Cl)cc1,67%
8,Nc1sc(-c2ccc(Cl)cc2)c(CN2CCN(Cc3ccccc3)CC2)c1C(=O)c1ccc(Cl)cc1,63%

# Biological target: T1, Adenosine receptor A1 (Homo sapiens)
# Test: Allosteric enhancing activity at human adenosine A1 receptor expressed in CHO cells assessed as inhibition of forskolin-stimulated cAMP accumulation at 10 uM incubated for 10 mins prior to forskolin-stimulation measured after 5 mins by competition protein binding assay
# Assay type: functional, cell-based
row,SMILES,inhibition
1,Nc1sc(-c2ccc(Cl)cc2)c(CN2CCN(c3ccccc3)CC2)c1C(=O)c1ccc(Cl)cc1,75%
2,Cc1sc(N)c(C(=O)c2ccc(Cl)cc2)c1CN1CCN(c2ccc(Cl)c(Cl)c2)CC1,56%
3,Cc1sc(N)c(C(=O)c2ccc(Cl)cc2)c1CN1CCN(c2ccc(C#N)cc2)CC1,11%
4,Nc1sc(-c2ccc(F)cc2)c(CN2CCN(c3ccccc3)CC2)c1C(=O)c1ccc(Cl)cc1,89%
5,CCc1sc(N)c(C(=O)c2ccc(Cl)cc2)c1CN1CCN(c2ccccc2)CC1,57%
6,Cc1sc(N)c(C(=O)c2ccc(Cl)cc2)c1CN1CCN(c2ccccc2)CC1,59%
7,Nc1sc(-c2ccccc2)c(CN2CCN(c3ccc(Cl)cc3)CC2)c1C(=O)c1ccc(Cl)cc1,68%
8,Nc1sc(-c2ccc(Cl)cc2)c(CN2CCN(Cc3ccccc3)CC2)c1C(=O)c1ccc(Cl)cc1,65%
